Here are results for one compound from US20030166213A1, “Methods for identifying compounds that modulate disorders related to nitric oxide/ cGMP-dependent protein kinase signaling” (priority 2000, published 2003).

The experiment has as its system Drosophila melanogaster. As to the kind of experiment: Effects of methylphenidate on rest (sleep) in flies, Drosophila Activity Monitoring System. The experiment is classed as in vivo. The note with it: wild-type Canton-S virgin female flies; 0.5 mg/ml methylphenidate dissolved in the food; transferred two hours before lights-off; rest over the following 14 hours vs baseline; p<0.05. As for the experimental part: Wild-type Canton-S (CS) flies were placed into a 50 ml vial containing yeast, dark corn syrup and agar food. Each colony was housed at 25° C. with a relative humidity of 50% in a Forma Scientific incubator. The flies were maintained on a 12:12 light/dark cycle with “lights-on” commencing at 8:00 am and “lights-off” commencing at 8:00 pm to yield darkness. Virgin females were collected and maintained in 50 ml vials for one day. During the second day, flies were individually placed into glass tubes (65 mm in length, 5 mm I.D.) containing about lomm of fresh food and the tubes were placed into the Drosophila Activity Monitoring System (Trikinetics, Waltham, Mass.). The flies remained undisturbed for the following 48 hours. The amount and distribution of rest was evaluated during the third day to ensure that the flies had adapted to the apparatus as previously described in Shaw et. al., Science 287:1834-1837 (2000). On day 4, two hours before lights-off, flies were transferred to fresh glass tubes containing only standard laboratory food or to tubes with 0.5 mg/ml methylphenidate that had been dissolved in the food. The amount and distribution of rest during the following 14 hours was then evaluated.

SMILES strings stand for the structures. “Also recorded” adds a separate entry of the source.

`COC(=O)C(c1ccccc1)C1CCCCN1` (stereo not shown) [methylphenidate]: the “amount and distribution of rest” value is “rest was significantly reduced compared to baseline; also recorded: significant and substantial decrease in rest”.
